Measurements: paper PMC6875038, “Comparative Pharmacokinetic Studies of Four Ginsenosides in Rat Plasma by UPLC-MS/MS after Oral Administration of Panax quinquefolius-Acorus gramineus and Panax quinquefolius Extracts” (Journal of Analytical Methods in Chemistry, 2019)
Where two headings read alike, the source gives them in different places.

Key:
[1] = Stability of the ginsenosides in rat plasma (QC samples); format: in vitro ADME; details: for Re (%) Postpreparation / Recovery (%) Postpreparation: autosampler 4°C for 12 h; for Re (%) Short term / Recovery (%) Short term / Re (%) Freeze-thaw cycles / Recovery (%) Freeze-thaw cycles: rat plasma; for Re (%) Short term / Recovery (%) Short term: 1 month at −80°C; for Re (%) Freeze-thaw cycles / Recovery (%) Freeze-thaw cycles: three freeze-thaw cycles at −80°C
Method: The standard stock solution was prepared in methanol with four ginsenosides at the final concentration of 1.14 mg/mL for Rb1, 0.10 mg/mL for Rb2, 0.78 mg/mL for Rd, and 1.58 mg/mL for Re. The working standard solution at required concentration was obtained by continuously diluting the stock solution. The IS stock solution was also prepared with methanol at a final concentration of 720 ng/mL. Calibration samples were prepared by mixing solutions of standard mixture, internal standard, and methanol with rat blank plasma at the final concentrations of 3.6, 7.2, 35.6, 71.2, 142.4, 284.8, 569.5, and 1, 139.0 ng/mL for Rb1, 1.6, 3.2, 6.3, 31.3, 62.5, 125.0, 250.0, and 500.0 ng/mL for Rb2, 1.2, 2.4, 4.9, 24.4, 48.8, 97.6, 195.1, and 390.2 ng/mL for Rd, and 2.5, 4.9, 9.9, 49.3, 98.6, 197.1, 394.3, and 788.5 ng/mL for Re. QC samples were also prepared with the same method at low, middle, and high concentrations (7.2, 142.4, and 911.4 ng/mL for Rb1, 3.2, 62.5, and 400.0 ng/mL for Rb2, 2.4, 48.8, and 312.2 ng/mL for Rd, 5.0, 98.6, and 630.8 ng/mL for Re). All solutions were stored at 4°C. The stability of the four analytes was determined by exposing plasma samples to QC at three concentration levels in six replicates. Samples were stored at −80°C for 1 month to assess the short-term storage stability. Freeze-thaw stability was performed after three freeze-thaw cycles at −80°C during three consecutive days. To evaluate the postpreparative stability, extracted QC samples were kept in the autosampler (4°C) for 12 h before analysis. The stability assessment of these samples was calibrated with freshly prepared standard as previously described.

[2] = Pharmacokinetics of four ginsenosides in rat plasma after oral administration of PQ-AG and PQ extracts (UPLC-MS/MS); format: in vivo; details: male SD rats, n = 6, mean ± SD; for AUC: male, SD, po
Method: Chromatographic analysis was performed on a Waters Acquity UPLC system (Waters Corp., Milford, MA, USA). An ACQUITY UPLC BEH C18 (100 × 2.1 mm, 1.7 μm) column was used for all analytes. The column temperature was at 35°C. The mobile phase was composed of formic acid aqueous solution (A, 0.1%) and acetonitrile (B) at a gradient elution of 25% B at 0–0.5 min, 25%–50% B at 0.5–2.0 min, 50–60% B at 2.0–5.0 min, 60–25% B at 5.0–5.5 min, and 25% B at 5.5–7.0 min, with a flow rate of 0.2 mL/min.
MS detection was performed using the Xevo Triple Quadruple MS (Waters Corp.) equipped with an ESI source in both positive and negative ionization modes. The experimental parameters were set as follows: CV 2.80 kV; desolvation temperature 350°C; source temperature […]; cone gas flow 50 L/h; and desolvation gas flow 650 L/h. The detection was carried out using the MRM scan mode. All experimental data were collected in centroid mode using Masslynx 4.1 software (Waters Corp., Milford, USA), and postacquisition quantitative analysis was conducted using Target Lynx program (Waters Corp., Milford, USA).
Plasma specimens (200 μL) were mixed with IS solution (20 μL, 720 ng/mL) in an Eppendorf tube and centrifuged at 4, 000 rpm for 15 min at 4°C. Then, the supernatant was removed from plasma sample. Hydrochloric acid (4 μL) was added into 200 μL plasma sample, and then, the mixture was vortexed for 1 min. Waters OASIS HLB SPE C18 columns (Waters, USA) were used to remove the proteins in plasma samples, and it was preactivated by 3 mL methanol and 3 mL water. Then, 2 mL of 100% methanol was used to wash the column, and the eluate was collected and dried under nitrogen gas (45°C). Subsequently, 100 μL of 100% methanol was used to redissolve the residues, followed by centrifugation at 13, 000 rpm for 15 min at 4°C. Before UPLC-MS/MS analysis, the sample was finally filtered through a 0.22 μm membrane filter.
DAS 3.2 software (Mathematical Pharmacology Professional Committee of China, Shanghai, China, 2011) was applied for the analysis of concentration-time data to investigate the pharmacokinetic parameters of four ginsenosides in various groups. Data were presented as the mean ± SD (standard deviation) with triplicate measurements. A significance level was set at P < 0.05.
Male SD rats were randomly and evenly divided into two groups (n = 6 per group) in pharmacokinetic studies. To evaluate the compatible effect of AG upon PQ treatment, rats were given PQ at a dosage of 0.54 g/kg (equivalent to the amount of raw drug 0.54 g) in the PQ group. PQ-AG was combined with an equal proportion to prepare the mixed extract. The oral dosage in rats was 1.08 g/kg (equivalent to the amount of the raw drug including 0.54 g AG and 0.54 g PQ) in the PQ-AG group. Blood samples were collected at specific time points of 0, 0.25, 0.5, 1.0, 1.5, 2.0, 4.0, 6.0, 8.0, 12.0, 16.0, 24.0, and 48.0 h. All the plasma samples were obtained by centrifuging the blood samples at 3, 500 rpm for 10 min, then labeled and frozen at −80°C prior to analysis.

[3] = extracted high QC (911.4 Rb1, 400.0 Rb2, 312.2 Rd, 630.8 Re ng/mL)
[4] = extracted low QC (7.2 Rb1, 3.2 Rb2, 2.4 Rd, 5.0 Re ng/mL)
[5] = extracted middle QC (142.4 Rb1, 62.5 Rb2, 48.8 Rd, 98.6 Re ng/mL)
[6] = high QC (911.4 Rb1, 400.0 Rb2, 312.2 Rd, 630.8 Re ng/mL)
[7] = low QC (7.2 Rb1, 3.2 Rb2, 2.4 Rd, 5.0 Re ng/mL)
[8] = middle QC (142.4 Rb1, 62.5 Rb2, 48.8 Rd, 98.6 Re ng/mL)
[9] = PQ group: oral PQ extract 0.54 g/kg
[10] = PQ-AG group: oral PQ-AG extract 1.08 g/kg
[11] = 0.54 g/kg, PQ group: oral PQ extract 0.54 g/kg, read-out: AUC0⟶t
[12] = 0.54 g/kg, PQ group: oral PQ extract 0.54 g/kg, read-out: AUC0⟶∞
[13] = 1.08 g/kg, PQ-AG group: oral PQ-AG extract 1.08 g/kg, read-out: AUC0⟶t
[14] = 1.08 g/kg, PQ-AG group: oral PQ-AG extract 1.08 g/kg, read-out: AUC0⟶∞

Structure (SMILES)	Re (%) Postpreparation [1, 3]	Recovery (%) Postpreparation [1, 3]	Re (%) Postpreparation [1, 4]	Recovery (%) Postpreparation [1, 4]	Re (%) Postpreparation [1, 5]	Recovery (%) Postpreparation [1, 5]	Re (%) Short term [1, 6]	Recovery (%) Short term [1, 6]	Re (%) Freeze-thaw cycles [1, 6]	Recovery (%) Freeze-thaw cycles [1, 6]	Re (%) Short term [1, 7]	Recovery (%) Short term [1, 7]	Re (%) Freeze-thaw cycles [1, 7]	Recovery (%) Freeze-thaw cycles [1, 7]	Re (%) Short term [1, 8]	Recovery (%) Short term [1, 8]	Re (%) Freeze-thaw cycles [1, 8]	Recovery (%) Freeze-thaw cycles [1, 8]	Cmax [2, 9]	Tmax [2, 9]	further results
CC(C)=CCC[C@](C)(O[C@@H]1O[C@H](CO[C@@H]2O[C@H](CO)[C@@H](O)[C@H](O)[C@H]2O)[C@@H](O)[C@H](O)[C@H]1O)[C@H]1CC[C@]2(C)[C@@H]1[C@H](O)C[C@@H]1[C@@]3(C)CC[C@H](O[C@@H]4O[C@H](CO)[C@@H](O)[C@H](O)[C@H]4O[C@@H]4O[C@H](CO)[C@@H](O)[C@H](O)[C@H]4O)C(C)(C)[C@@H]3CC[C@]12C [Rb1]	−6.47%	96.10%	6.86%	101.85%	9.35%	101.65%	7.53%	101.65%	7.75%	101.95%	−7.55%	96.32%	−6.90%	97.66%	7.95%	100.48%	−4.48%	95.35%	461 ± 15.9 ng/mL	7 ± 1.1 h	half-life [2, 9]: 15.6 ± 1.52 h; Cmax [2, 10]: 600 ± 53.6 ng/mL; Tmax [2, 10]: 6.67 ± 1.03 h; half-life [2, 10]: 18.5 ± 2.61 h; AUC [2, 11]: 5980 ± 313 ng·h/mL; AUC [2, 12]: 6150 ± 328 ng·h/mL; AUC [2, 13]: 8130 ± 454 ng·h/mL; AUC [2, 14]: 8410 ± 488 ng·h/mL
CC(C)=CCC[C@](C)(O[C@@H]1O[C@H](CO[C@@H]2OC[C@H](O)[C@H](O)[C@H]2O)[C@@H](O)[C@H](O)[C@H]1O)[C@H]1CC[C@]2(C)[C@@H]1[C@H](O)C[C@@H]1[C@@]3(C)CC[C@H](O[C@@H]4O[C@H](CO)[C@@H](O)[C@H](O)[C@H]4O[C@@H]4O[C@H](CO)[C@@H](O)[C@H](O)[C@H]4O)C(C)(C)[C@@H]3CC[C@]12C [Rb2]	7.90%	99.63%	−9.72%	93.37%	2.39%	99.94%	7.11%	98.74%	9.36%	103.82%	−9.70%	93.67%	−9.69%	94.21%	−2.12%	95.33%	6.77%	100.41%	160 ± 18.8 ng/mL	7.67 ± 0.82 h	half-life [2, 9]: 13.3 ± 1.58 h; Cmax [2, 10]: 264 ± 24.5 ng/mL; Tmax [2, 10]: 7.67 ± 0.82 h; half-life [2, 10]: 15.6 ± 5.21 h; AUC [2, 11]: 1210 ± 99.2 ng·h/mL; AUC [2, 12]: 1230 ± 99.6 ng·h/mL; AUC [2, 13]: 2460 ± 243 ng·h/mL; AUC [2, 14]: 2520 ± 289 ng·h/mL
CC(C)=CCC[C@](C)(O[C@@H]1O[C@H](CO)[C@@H](O)[C@H](O)[C@H]1O)[C@H]1CC[C@]2(C)[C@@H]1[C@H](O)C[C@@H]1[C@@]3(C)CC[C@H](O[C@@H]4O[C@H](CO)[C@@H](O)[C@H](O)[C@H]4O[C@@H]4O[C@H](CO)[C@@H](O)[C@H](O)[C@H]4O)C(C)(C)[C@@H]3CC[C@]12C [Rd]	−7.02%	94.81%	4.43%	100.10%	9.98%	101.71%	7.35%	101.27%	8.12%	102.00%	8.64%	102.66%	−11.93%	97.24%	10.24%	103.61%	8.87%	100.20%	201 ± 7.3 ng/mL	7.67 ± 0.82 h	half-life [2, 9]: 13.1 ± 2.61 h; Cmax [2, 10]: 283 ± 11.1 ng/mL; Tmax [2, 10]: 6.33 ± 0.82 h; half-life [2, 10]: 14.2 ± 1.98 h; AUC [2, 11]: 3010 ± 230 ng·h/mL; AUC [2, 12]: 3320 ± 317 ng·h/mL; AUC [2, 13]: 3870 ± 356 ng·h/mL; AUC [2, 14]: 3960 ± 383 ng·h/mL
CC(C)=CCC[C@](C)(O[C@@H]1O[C@H](CO)[C@@H](O)[C@H](O)[C@H]1O)[C@H]1CC[C@]2(C)[C@@H]1[C@H](O)C[C@@H]1[C@@]3(C)CC[C@H](O)C(C)(C)[C@@H]3[C@@H](O[C@@H]3O[C@H](CO)[C@@H](O)[C@H](O)[C@H]3O[C@@H]3O[C@@H](C)[C@H](O)[C@@H](O)[C@H]3O)C[C@]12C [Re]	9.76%	102.50%	8.54%	104.63%	8.92%	97.21%	8.40%	101.73%	−9.85%	97.39%	−10.71%	97.30%	7.33%	104.07%	12.11%	99.25%	7.53%	94.12%	355 ± 26.6 ng/mL	1.08 ± 0.2 h	half-life [2, 9]: 8.14 ± 1.2 h; Cmax [2, 10]: 460 ± 30.2 ng/mL; Tmax [2, 10]: 0.58 ± 0.2 h; half-life [2, 10]: 9.81 ± 2.15 h; AUC [2, 11]: 2330 ± 214 ng·h/mL; AUC [2, 12]: 2380 ± 224 ng·h/mL; AUC [2, 13]: 3430 ± 294 ng·h/mL; AUC [2, 14]: 3580 ± 396 ng·h/mL
